This note sets out measurements from US20090221573A1, “Use of Activators of Soluble Guanylate Cyclase for Promoting Wound Healing” (Bayer HealthCare AG, priority 2005, published 2009).

For this assay, the system named is smooth muscle cells of the human coronary artery. As to the kind of experiment: Inhibition of the horizontal migration of smooth muscle cells (wounded monolayer). The format is cell-based. The note with it: read-out: Inhibition of the horizontal migration of smooth muscle cells of the human coronary artery, IC50. On the procedure:
Smooth muscle cells of the human coronary artery are seeded in a 6-well plate (1.5×10^5 cells/well) (Clonetics) and cultured in SmGM2 medium (Clonetics) for 48 h. Before the plates are used, the wells are coated with vitronectin (50 ng/cm^2; Gibco BRL). Half of the confluent cell monolayer is removed with the aid of a cell scraper (wounding). In the cell-free region, the vitronectin coating is at least 50% retained in this case. For the test, unless mentioned otherwise, the culture medium is replaced by MCDB-131/0.2% BSA (Gibco/BRL) medium. The test substances are added in various concentrations, and the migration distance in the cell-free region is followed with the aid of a microscope over 24 h and 48 h. Each measurement point represents the average of four measured regions. PDGF, as potent chemotactic factor for SMC, is used as positive control (1 nM, 10 nM, R&D systems). The RGD tripeptide (Bachem) is employed to inhibit the integrin-induced migration. To determine the antagonistic activity of the test substances, the cells are stimulated in the presence of the substance with 1 nM or 10 nM PDGF, and the migration distances are determined in relation to the PDGF-induced migration distances.

Where two headings read alike, the source gives them in different places.

As for `O=C(O)CCCCN(CCc1ccccc1OCc1ccc(CCc2ccccc2)cc1)Cc1ccc(C(=O)O)cc1` [Compound I], the IC50 (48 h) is 5 nM. Consider `COC(=O)N(C)c1c(N)nc(-c2nn(Cc3ccccc3F)c3ncccc23)nc1N` [IV], for which the IC50 (incubation time 48 h) was 10 nM. For `COC(=O)Nc1c(N)nc(-c2nn(Cc3ccccc3F)c3ncccc23)nc1N` [IVa], for the setting “48 h”, the IC50 stood at 30 nM.
